# Data: paper PMC10218303, “Novel Polymyxin-Inspired Peptidomimetics Targeting the SARS-CoV-2 Spike:hACE2 Interface” (International Journal of Molecular Sciences, 2023)
# How the values were obtained:
# in vitro = details: human
# [1] = tested on: SARS-CoV-2 (strain 20A.EU2); test: microbe, parasite or virus in culture; details: Severe acute respiratory syndrome coronavirus 2, 96 h, read-out: IC50 20A.EU2
smiles,measurement,setting,value
"CCC(CC)COC(=O)[C@H](C)N[P@](=O)(OC[C@H]1O[C@@](C#N)(c2ccc3c(N)ncnn23)[C@H](O)[C@@H]1O)Oc1ccccc1 [remdesivir, reference compound]",CC50,in vitro,43 µM
same,IC50,[1],4.4 nM
